Where two headings read alike, the source gives them in different places.
Key:
MAPK2 = target: T1, MAPK2 (Homo sapiens, UniProt P28482); test: Millipore kinase panel; assay type: biochemical; conditions: ATP at Km, read-out: % Control
T1 construct: purchased Millipore KinaseProfiler (kinases); Cerep (receptors and ion channels)

Plasma stability = assay type: in vitro ADME
Cl- channel (GABA-gated) = test: CEREP binding panel; conditions: 10 μM, antagonist radioligand
MST1 = target: T2, MST1 (Homo sapiens, UniProt Q13043); test: Millipore kinase panel; assay type: biochemical; conditions: read-out: % Control
T2 construct: purchased Millipore KinaseProfiler (kinases); Cerep (receptors and ion channels)

GSK3ALPHA = target: T3, GSK3ALPHA (Homo sapiens, UniProt P49840); test: Millipore kinase panel; assay type: biochemical; conditions: read-out: % Control
T3 construct: purchased Millipore

Clint determination [1] = assay type: in vitro ADME; conditions: human, microsomes, pH 7.4, human microsomes, read-out: Clint (μL/min/mg) Human
TP (h) (TXA2/PGH2) = target: T4, TP (h) (TXA2/PGH2) (Homo sapiens, UniProt P21731); test: CEREP binding panel; conditions: antagonist radioligand, read-out: % Inhibition of Control Specific Binding
T4 construct: purchased Millipore KinaseProfiler (kinases); Cerep (receptors and ion channels)
T4 sequence (P21731 whole entry): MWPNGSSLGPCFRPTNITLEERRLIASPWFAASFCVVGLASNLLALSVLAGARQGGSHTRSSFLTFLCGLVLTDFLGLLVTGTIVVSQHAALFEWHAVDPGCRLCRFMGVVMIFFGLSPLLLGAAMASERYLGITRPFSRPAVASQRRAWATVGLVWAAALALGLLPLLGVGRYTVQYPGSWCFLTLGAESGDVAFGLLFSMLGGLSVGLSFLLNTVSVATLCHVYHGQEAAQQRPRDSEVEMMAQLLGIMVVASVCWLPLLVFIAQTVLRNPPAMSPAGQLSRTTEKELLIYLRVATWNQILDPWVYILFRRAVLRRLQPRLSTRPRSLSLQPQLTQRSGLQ

Clint determination [2] = assay type: in vitro ADME; conditions: mouse, microsomes, pH 7.4, mouse microsomes, read-out: Clint (μL/min/mg) Mouse
PKCGAMMA = target: T5, PKCGAMMA (Homo sapiens, UniProt P05129); test: Millipore kinase panel; assay type: biochemical; conditions: read-out: % Control
T5 construct: purchased Millipore KinaseProfiler (kinases); Cerep (receptors and ion channels)

TSSK2 = target: T6, TSSK2 (Homo sapiens, UniProt Q96PF2); test: Millipore kinase panel; assay type: biochemical; conditions: read-out: % Control
T6 construct: purchased Millipore KinaseProfiler (kinases); Cerep (receptors and ion channels)

SAPK2A(T106M) = target: T7, SAPK2A(T106M) (Homo sapiens, UniProt Q16539, T106M); test: Millipore kinase panel; assay type: biochemical; conditions: read-out: % Control
T7 construct: purchased Millipore KinaseProfiler (kinases); Cerep (receptors and ion channels)
T7 sequence (Q16539 whole entry T106M): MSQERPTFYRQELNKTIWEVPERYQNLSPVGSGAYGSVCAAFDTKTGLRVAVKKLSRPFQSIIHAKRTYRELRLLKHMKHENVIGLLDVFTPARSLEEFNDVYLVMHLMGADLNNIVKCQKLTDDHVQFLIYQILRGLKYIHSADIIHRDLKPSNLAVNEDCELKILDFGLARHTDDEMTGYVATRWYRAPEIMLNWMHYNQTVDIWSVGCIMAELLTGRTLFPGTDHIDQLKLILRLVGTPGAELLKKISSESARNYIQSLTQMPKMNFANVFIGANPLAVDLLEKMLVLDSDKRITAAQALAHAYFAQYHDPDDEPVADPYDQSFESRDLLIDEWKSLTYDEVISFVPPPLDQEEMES

CDK2/CYCLINE = target: T8, CDK2/CYCLINE (Homo sapiens, UniProt P24941); test: Millipore kinase panel; assay type: biochemical; conditions: read-out: % Control
T8 construct: purchased Millipore KinaseProfiler (kinases); Cerep (receptors and ion channels)

FLT3(D835Y) = target: T9, FLT3(D835Y) (Homo sapiens, UniProt P36888, D835Y); test: Millipore kinase panel; assay type: biochemical; conditions: read-out: % Control
T9 construct: purchased Millipore KinaseProfiler (kinases); Cerep (receptors and ion channels)

PI3K BETA = target: T10, PI3K BETA (Homo sapiens, UniProt P42338); test: Millipore kinase panel; assay type: biochemical; conditions: read-out: % Control
T10 construct: purchased Millipore KinaseProfiler (kinases); Cerep (receptors and ion channels)

NEK11 = target: T11, NEK11 (Homo sapiens, UniProt Q8NG66); test: Millipore kinase panel; assay type: biochemical; conditions: read-out: % Control
T11 construct: purchased Millipore KinaseProfiler (kinases); Cerep (receptors and ion channels)

CAMKIDELTA = target: T12, CAMKIDELTA (Homo sapiens, UniProt Q8IU85); test: Millipore kinase panel; assay type: biochemical; conditions: read-out: % Control
T12 construct: purchased Millipore KinaseProfiler (kinases); Cerep (receptors and ion channels)
T12 sequence (Q8IU85 whole entry): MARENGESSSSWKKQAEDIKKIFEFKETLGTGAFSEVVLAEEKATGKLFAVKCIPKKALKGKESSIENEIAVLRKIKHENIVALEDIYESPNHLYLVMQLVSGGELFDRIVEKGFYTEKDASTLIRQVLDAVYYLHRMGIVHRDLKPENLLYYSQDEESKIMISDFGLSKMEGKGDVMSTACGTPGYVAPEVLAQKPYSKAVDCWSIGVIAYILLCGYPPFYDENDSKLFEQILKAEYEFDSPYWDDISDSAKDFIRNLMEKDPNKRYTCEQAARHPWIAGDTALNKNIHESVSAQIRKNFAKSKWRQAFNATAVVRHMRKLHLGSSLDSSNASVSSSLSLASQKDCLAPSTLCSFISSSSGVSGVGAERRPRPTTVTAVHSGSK

P70S6K = target: T13, P70S6K (Homo sapiens, UniProt P23443); test: Millipore kinase panel; assay type: biochemical; conditions: read-out: % Control
T13 construct: purchased Millipore KinaseProfiler (kinases); Cerep (receptors and ion channels)
T13 sequence (P23443 whole entry): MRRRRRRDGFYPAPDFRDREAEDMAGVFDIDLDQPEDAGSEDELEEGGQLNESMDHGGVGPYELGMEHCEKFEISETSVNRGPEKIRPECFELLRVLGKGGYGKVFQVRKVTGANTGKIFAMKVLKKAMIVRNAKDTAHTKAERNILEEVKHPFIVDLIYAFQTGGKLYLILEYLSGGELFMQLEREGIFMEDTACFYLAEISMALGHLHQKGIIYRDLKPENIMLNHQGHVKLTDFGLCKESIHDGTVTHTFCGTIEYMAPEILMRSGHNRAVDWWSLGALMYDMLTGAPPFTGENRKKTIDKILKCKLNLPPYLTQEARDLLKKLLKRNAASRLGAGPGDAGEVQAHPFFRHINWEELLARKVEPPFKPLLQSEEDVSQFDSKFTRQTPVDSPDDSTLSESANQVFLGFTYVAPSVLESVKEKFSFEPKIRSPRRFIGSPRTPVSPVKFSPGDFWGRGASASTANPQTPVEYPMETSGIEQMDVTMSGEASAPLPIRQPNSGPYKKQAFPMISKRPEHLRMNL

PRKAA2 = target: T14, PRKAA2 (Homo sapiens, UniProt P54646); test: Millipore kinase panel; assay type: biochemical; conditions: read-out: % Control
T14 construct: purchased Millipore KinaseProfiler (kinases); Cerep (receptors and ion channels)

ABL (M351T) = target: T15, ABL (M351T) (Homo sapiens, UniProt P00519, M351T); test: Millipore kinase panel; assay type: biochemical; conditions: read-out: % Control
T15 construct: purchased Millipore KinaseProfiler (kinases); Cerep (receptors and ion channels)

AURKA = target: T16, AURKA (Homo sapiens, UniProt O14965); test: Millipore kinase panel; assay type: biochemical; conditions: read-out: % Control
T16 construct: purchased Millipore KinaseProfiler (kinases); Cerep (receptors and ion channels)
T16 sequence (O14965 whole entry): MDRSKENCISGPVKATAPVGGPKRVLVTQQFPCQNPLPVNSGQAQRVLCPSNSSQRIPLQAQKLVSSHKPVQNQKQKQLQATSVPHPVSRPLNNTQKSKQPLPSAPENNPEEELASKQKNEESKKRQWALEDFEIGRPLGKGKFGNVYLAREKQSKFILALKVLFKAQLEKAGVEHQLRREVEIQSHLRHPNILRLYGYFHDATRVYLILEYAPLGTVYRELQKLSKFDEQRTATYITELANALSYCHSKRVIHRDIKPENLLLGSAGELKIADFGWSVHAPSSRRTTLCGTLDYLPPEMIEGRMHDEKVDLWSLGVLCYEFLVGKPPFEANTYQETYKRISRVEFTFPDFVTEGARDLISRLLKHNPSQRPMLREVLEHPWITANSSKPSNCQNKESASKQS

RET(V804M) = target: T17, RET(V804M) (Homo sapiens, UniProt P07949, V804M); test: Millipore kinase panel; assay type: biochemical; conditions: read-out: % Control
T17 construct: purchased Millipore KinaseProfiler (kinases); Cerep (receptors and ion channels)

CYP450 3A4 = CYP450 3A4 (Homo sapiens, UniProt P08684); test: CYP450 inhibition; assay type: in vitro ADME
PKCEPSILON = target: T18, PKCEPSILON (Homo sapiens, UniProt Q02156); test: Millipore kinase panel; assay type: biochemical; conditions: read-out: % Control
T18 construct: purchased Millipore KinaseProfiler (kinases); Cerep (receptors and ion channels)
T18 sequence (Q02156 whole entry): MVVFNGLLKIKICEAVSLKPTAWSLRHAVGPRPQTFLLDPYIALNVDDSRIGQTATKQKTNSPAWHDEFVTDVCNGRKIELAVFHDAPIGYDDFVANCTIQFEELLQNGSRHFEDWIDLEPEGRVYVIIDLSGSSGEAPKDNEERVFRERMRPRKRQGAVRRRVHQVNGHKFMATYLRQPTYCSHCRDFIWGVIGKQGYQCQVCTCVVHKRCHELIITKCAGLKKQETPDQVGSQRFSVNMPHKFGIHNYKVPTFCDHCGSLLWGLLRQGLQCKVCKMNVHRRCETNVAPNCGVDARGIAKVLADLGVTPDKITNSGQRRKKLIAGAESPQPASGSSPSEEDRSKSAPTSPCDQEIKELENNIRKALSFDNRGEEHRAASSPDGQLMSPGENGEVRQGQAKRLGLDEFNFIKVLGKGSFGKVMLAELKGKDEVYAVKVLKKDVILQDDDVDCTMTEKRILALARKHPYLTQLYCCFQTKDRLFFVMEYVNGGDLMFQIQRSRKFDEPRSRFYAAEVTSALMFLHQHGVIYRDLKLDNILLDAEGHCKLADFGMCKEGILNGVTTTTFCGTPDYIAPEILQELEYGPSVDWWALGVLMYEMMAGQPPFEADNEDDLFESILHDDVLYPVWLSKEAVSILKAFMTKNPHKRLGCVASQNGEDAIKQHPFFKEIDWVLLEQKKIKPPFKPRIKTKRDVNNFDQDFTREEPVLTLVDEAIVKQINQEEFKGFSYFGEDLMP

MTOR/FKBP12 = target: T19, MTOR/FKBP12 (Homo sapiens, UniProt P42345); test: Millipore kinase panel; assay type: biochemical; conditions: read-out: % Control
T19 construct: purchased Millipore KinaseProfiler (kinases); Cerep (receptors and ion channels)

PKCDELTA = target: T20, PKCDELTA (Homo sapiens, UniProt Q05655); test: Millipore kinase panel; assay type: biochemical; conditions: read-out: % Control
T20 construct: purchased Millipore KinaseProfiler (kinases); Cerep (receptors and ion channels)
T20 sequence (Q05655 whole entry): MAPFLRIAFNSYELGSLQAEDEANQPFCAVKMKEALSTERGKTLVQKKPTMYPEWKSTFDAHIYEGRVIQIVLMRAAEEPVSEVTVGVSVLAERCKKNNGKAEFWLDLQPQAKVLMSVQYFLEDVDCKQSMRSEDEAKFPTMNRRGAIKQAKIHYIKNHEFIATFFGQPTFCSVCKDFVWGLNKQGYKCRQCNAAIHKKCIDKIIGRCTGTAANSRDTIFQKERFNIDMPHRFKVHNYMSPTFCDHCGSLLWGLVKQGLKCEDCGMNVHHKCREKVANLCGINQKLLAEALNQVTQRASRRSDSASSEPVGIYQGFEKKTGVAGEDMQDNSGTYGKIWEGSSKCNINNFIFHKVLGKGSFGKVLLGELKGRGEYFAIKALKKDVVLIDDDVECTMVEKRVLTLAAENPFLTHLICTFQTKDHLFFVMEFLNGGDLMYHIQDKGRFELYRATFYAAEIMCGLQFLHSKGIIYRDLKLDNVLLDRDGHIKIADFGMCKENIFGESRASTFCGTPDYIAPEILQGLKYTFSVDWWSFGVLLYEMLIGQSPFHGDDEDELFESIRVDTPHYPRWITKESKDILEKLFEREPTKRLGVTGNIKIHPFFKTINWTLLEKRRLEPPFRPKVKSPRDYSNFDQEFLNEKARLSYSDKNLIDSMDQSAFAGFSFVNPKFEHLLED

TAO2 = target: T21, TAO2 (Homo sapiens, UniProt Q9UL54); test: Millipore kinase panel; assay type: biochemical; conditions: read-out: % Control
T21 construct: purchased Millipore KinaseProfiler (kinases); Cerep (receptors and ion channels)

CKIT(V560G) = target: T22, CKIT(V560G) (Homo sapiens, UniProt P10721, V560G); test: Millipore kinase panel; assay type: biochemical; conditions: read-out: % Control
T22 construct: purchased Millipore KinaseProfiler (kinases); Cerep (receptors and ion channels)

CKIT(D816H) = target: T23, CKIT(D816H) (Homo sapiens, UniProt P10721, D816H); test: Millipore kinase panel; assay type: biochemical; conditions: read-out: % Control
T23 construct: purchased Millipore KinaseProfiler (kinases); Cerep (receptors and ion channels)

ABL(Y253F) = target: T24, ABL(Y253F) (Homo sapiens, UniProt P00519, Y253F); test: Millipore kinase panel; assay type: biochemical; conditions: read-out: % Control
T24 construct: purchased Millipore KinaseProfiler (kinases); Cerep (receptors and ion channels)

PDGFRALPHA(D842V) = target: T25, PDGFRALPHA(D842V) (Homo sapiens, UniProt P16234, D842V); test: Millipore kinase panel; assay type: biochemical; conditions: read-out: % Control
T25 construct: purchased Millipore KinaseProfiler (kinases); Cerep (receptors and ion channels)

CK1GAMMA2 = target: T26, CK1GAMMA2 (Homo sapiens, UniProt P78368); test: Millipore kinase panel; assay type: biochemical; conditions: read-out: % Control
T26 construct: purchased Millipore KinaseProfiler (kinases); Cerep (receptors and ion channels)
T26 sequence (P78368 whole entry): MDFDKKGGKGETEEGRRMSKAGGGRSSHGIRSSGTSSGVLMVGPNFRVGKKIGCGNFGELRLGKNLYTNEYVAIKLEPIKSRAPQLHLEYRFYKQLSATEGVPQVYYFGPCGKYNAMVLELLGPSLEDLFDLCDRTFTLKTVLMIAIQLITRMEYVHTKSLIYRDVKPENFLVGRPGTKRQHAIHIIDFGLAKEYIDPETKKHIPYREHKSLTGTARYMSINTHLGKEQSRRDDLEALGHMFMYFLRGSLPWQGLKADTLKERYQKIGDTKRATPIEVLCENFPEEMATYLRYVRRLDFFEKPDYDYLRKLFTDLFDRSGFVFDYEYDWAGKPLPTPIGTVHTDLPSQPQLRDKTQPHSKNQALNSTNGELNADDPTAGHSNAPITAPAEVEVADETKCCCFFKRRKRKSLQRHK

PKBGAMMA = target: T27, PKBGAMMA (Homo sapiens, UniProt Q9Y243); test: Millipore kinase panel; assay type: biochemical; conditions: read-out: % Control
T27 construct: purchased Millipore KinaseProfiler (kinases); Cerep (receptors and ion channels)
T27 sequence (Q9Y243 whole entry): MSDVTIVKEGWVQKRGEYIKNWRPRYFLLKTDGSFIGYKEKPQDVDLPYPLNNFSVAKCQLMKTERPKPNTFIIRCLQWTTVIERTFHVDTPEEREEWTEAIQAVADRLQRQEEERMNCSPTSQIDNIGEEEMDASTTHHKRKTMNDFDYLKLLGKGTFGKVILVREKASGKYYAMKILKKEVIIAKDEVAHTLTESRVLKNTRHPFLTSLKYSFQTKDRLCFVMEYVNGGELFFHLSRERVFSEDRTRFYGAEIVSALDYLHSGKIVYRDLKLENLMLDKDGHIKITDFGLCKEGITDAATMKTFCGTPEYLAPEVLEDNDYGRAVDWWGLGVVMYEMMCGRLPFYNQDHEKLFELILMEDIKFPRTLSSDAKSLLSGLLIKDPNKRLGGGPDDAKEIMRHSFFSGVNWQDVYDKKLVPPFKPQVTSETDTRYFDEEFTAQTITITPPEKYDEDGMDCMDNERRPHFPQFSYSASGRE

PKBALPHA = target: T28, PKBALPHA (Homo sapiens, UniProt P31749); test: Millipore kinase panel; assay type: biochemical; conditions: read-out: % Control
T28 construct: purchased Millipore KinaseProfiler (kinases); Cerep (receptors and ion channels)
T28 sequence (P31749 whole entry): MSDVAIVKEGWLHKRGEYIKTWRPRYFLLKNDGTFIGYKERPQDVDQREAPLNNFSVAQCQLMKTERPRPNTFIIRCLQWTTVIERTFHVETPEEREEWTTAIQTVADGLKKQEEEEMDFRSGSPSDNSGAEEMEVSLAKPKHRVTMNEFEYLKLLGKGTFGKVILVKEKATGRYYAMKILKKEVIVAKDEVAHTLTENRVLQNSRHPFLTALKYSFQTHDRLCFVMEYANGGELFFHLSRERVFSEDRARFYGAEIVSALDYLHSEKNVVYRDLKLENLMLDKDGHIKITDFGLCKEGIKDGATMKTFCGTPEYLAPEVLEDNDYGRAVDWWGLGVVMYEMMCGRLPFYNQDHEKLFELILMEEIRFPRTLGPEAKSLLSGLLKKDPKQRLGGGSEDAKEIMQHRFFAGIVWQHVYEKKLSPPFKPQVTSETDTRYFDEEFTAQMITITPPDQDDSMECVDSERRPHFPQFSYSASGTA

IR = target: T29, IR (Homo sapiens, UniProt P06213); test: Millipore kinase panel; assay type: biochemical; conditions: read-out: % Control
T29 construct: purchased Millipore KinaseProfiler (kinases); Cerep (receptors and ion channels)

PI3K DELTA = target: T30, PI3K DELTA (Homo sapiens, UniProt O00329); test: Millipore kinase panel; assay type: biochemical; conditions: read-out: % Control
T30 construct: purchased Millipore KinaseProfiler (kinases); Cerep (receptors and ion channels)

CK2ALPHA2 = target: T31, CK2ALPHA2 (Homo sapiens, UniProt P19784); test: Millipore kinase panel; assay type: biochemical; conditions: read-out: % Control
T31 construct: purchased Millipore KinaseProfiler (kinases); Cerep (receptors and ion channels)

PI3 KINASE (H1047R/P85A) = target: T32, PI3 KINASE (H1047R/P85A) (Homo sapiens, UniProt P42336, H1047R); test: Millipore kinase panel; assay type: biochemical; conditions: read-out: % Control
T32 construct: purchased Millipore KinaseProfiler (kinases); Cerep (receptors and ion channels)

CYP450 2B8 = CYP450 2B8 (Homo sapiens, UniProt P20813); test: CYP450 inhibition
TCF1 or TCF4 = test: Endogenous TCF1 and TCF4 levels in COLO205-F1756 clone 4; assay type: cell-based, human; conditions: COLO205-F1756 clone 4, 350 nM
Source text: Supplementary Figure S2. Levels of TCF1 and TCF4 in response to treatment of COLO205-
F1756 clone 4 (an APC-mutant human colorectal cancer cell line engineered to express a
(1 picture or pasted object on this page, not shown here)

O=C1NCCC12CCN(c1c(Cl)cncc1-c1ccc(N3CCOCC3)cc1)CC2 [Compound 44, 8-(3-Chloro-5-(4-morpholin-4-ylphenyl)pyridin-4-yl)-2,8-diazaspiro[4.5]decan-1-one]
remaining activity at 1 µM (MAPK2): 10%
plasma instability (Plasma stability): no plasma instability was observed
% Inhibition of Control Specific Binding (Cl- channel (GABA-gated)): 14%
remaining activity at 1 µM (MST1): 14%
remaining activity at 1 µM (GSK3ALPHA): -39%
microsomal CLint at 1 μM (Clint determination [1]): 115 µL/min/mg
inhibition at 10 µM (TP (h) (TXA2/PGH2)): 14%
microsomal CLint at 1 μM (Clint determination [2]): 290 µL/min/mg

Cn1cc(-c2ccc(-c3cncc(Cl)c3N3CCC4(CCNC4=O)CC3)cc2)cn1 [Compound 74, 8-(3-Chloro-5-(4-(1-methyl-1H-pyrazol-4-yl)phenyl)pyridin-4-yl)-2,8-diazaspiro[4.5]decan-1-one]
remaining activity at 1 µM (PKCGAMMA): 2%
remaining activity at 1 µM (TSSK2): -1%
remaining activity at 1 µM (SAPK2A(T106M)): -8%
remaining activity at 1 µM (CDK2/CYCLINE): -14%
remaining activity at 1 µM (FLT3(D835Y)): -11%
remaining activity at 1 µM (PI3K BETA): 0%
remaining activity at 1 µM (NEK11): 7%
remaining activity at 1 µM (CAMKIDELTA): -4%
remaining activity at 1 µM (P70S6K): -15%
remaining activity at 1 µM (PRKAA2): 2%
remaining activity at 1 µM (ABL (M351T)): 5%
remaining activity at 1 µM (AURKA): 6%
remaining activity at 1 µM (RET(V804M)): -8%
IC50 (CYP450 3A4): 11.4 µM
remaining activity at 1 µM (PKCEPSILON): -22%
remaining activity at 1 µM (MTOR/FKBP12): 11%
remaining activity at 1 µM (PKCDELTA): -37%
remaining activity at 1 µM (TAO2): -15%
remaining activity at 1 µM (CKIT(V560G)): -5%
remaining activity at 1 µM (CKIT(D816H)): -7%
remaining activity at 1 µM (ABL(Y253F)): -11%
remaining activity at 1 µM (PDGFRALPHA(D842V)): -4%
remaining activity at 1 µM (CK1GAMMA2): 10%
remaining activity at 1 µM (PKBGAMMA): -5%
remaining activity at 1 µM (PKBALPHA): 2%
remaining activity at 1 µM (IR): -8%
remaining activity at 1 µM (PI3K DELTA): -2%
remaining activity at 1 µM (CK2ALPHA2): -1%
remaining activity at 1 µM (PI3 KINASE (H1047R/P85A)): -1%
IC50 (CYP450 2B8): > 20 µM
effect on endogenous levels of TCF1 or TCF4 (TCF1 or TCF4): did not affect endogenous levels of TCF1 or TCF4

— publication PMC4767141, “Discovery of Potent, Orally Bioavailable, Small-Molecule Inhibitors of WNT Signaling from a Cell-Based Pathway Screen” (Journal of Medicinal Chemistry, 2015)
